How the values were obtained:
Androgen receptor = biological target: T1, Androgen receptor (Rattus norvegicus, UniProt P15207); assay: In vitro antagonist activity against rat prostatic androgen receptor (AR)
T1 sequence (P15207 whole entry): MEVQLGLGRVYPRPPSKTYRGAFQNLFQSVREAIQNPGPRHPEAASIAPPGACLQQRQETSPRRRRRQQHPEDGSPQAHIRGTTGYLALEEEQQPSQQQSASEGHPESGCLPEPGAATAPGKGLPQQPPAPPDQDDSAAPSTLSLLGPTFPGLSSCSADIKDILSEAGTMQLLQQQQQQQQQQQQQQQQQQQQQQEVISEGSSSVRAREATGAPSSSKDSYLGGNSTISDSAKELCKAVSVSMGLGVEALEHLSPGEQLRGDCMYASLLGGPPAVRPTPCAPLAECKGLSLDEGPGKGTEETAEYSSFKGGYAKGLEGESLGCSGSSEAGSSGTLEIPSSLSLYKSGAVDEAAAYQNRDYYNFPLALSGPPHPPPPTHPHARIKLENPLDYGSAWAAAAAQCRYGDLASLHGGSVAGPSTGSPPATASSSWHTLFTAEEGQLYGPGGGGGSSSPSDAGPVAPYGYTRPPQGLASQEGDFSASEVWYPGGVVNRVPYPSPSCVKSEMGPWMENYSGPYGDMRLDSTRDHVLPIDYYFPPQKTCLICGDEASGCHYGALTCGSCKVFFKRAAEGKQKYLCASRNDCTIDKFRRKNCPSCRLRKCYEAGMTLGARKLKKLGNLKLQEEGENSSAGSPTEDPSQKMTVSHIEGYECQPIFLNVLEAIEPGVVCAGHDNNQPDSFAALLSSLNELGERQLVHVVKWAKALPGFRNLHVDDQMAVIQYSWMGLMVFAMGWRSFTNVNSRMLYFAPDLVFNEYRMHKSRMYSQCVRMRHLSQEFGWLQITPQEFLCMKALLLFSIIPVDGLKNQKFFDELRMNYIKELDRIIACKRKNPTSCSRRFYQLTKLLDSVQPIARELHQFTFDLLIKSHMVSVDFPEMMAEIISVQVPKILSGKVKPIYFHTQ

[1] = biological target: T2, Steroid 5-alpha-reductase (Rattus norvegicus, UniProt P24008+P31214); assay: In vitro inhibitory activity against rat prostatic steroid 5-alpha-reductase; assay type: protein assay
T2 sequence (P24008 whole entry): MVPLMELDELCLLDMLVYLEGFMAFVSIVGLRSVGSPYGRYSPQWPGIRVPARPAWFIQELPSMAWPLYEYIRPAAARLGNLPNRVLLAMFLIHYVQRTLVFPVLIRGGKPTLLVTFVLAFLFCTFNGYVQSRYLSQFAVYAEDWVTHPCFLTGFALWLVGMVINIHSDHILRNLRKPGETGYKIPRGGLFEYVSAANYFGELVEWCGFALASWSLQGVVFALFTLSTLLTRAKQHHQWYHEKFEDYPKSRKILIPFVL
T2 sequence (P31214 whole entry): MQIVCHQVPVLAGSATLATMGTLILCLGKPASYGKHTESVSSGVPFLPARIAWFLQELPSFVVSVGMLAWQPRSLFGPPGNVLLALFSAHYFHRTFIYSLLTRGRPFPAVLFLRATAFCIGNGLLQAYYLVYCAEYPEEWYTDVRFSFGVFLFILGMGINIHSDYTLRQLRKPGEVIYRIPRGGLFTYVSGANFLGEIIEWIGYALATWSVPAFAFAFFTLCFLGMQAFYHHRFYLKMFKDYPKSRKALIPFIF

IC50 (Androgen receptor)	IC50 [1]	SMILES
0.19 µM	0.22 µM	CCN(CC)C(=O)[C@H]1CC[C@H]2[C@@H]3CC=C4N(O)C(=O)CC[C@]4(C)[C@H]3CC[C@]12C
14 µM	0.0035 µM	CC(C)N(C(=O)[C@H]1CC[C@H]2[C@@H]3CC[C@H]4N(C)C(=O)CC[C@]4(C)[C@H]3CC[C@]12C)C(C)C
0.79 µM	0.0046 µM	COC(CNC(=O)[C@H]1CC[C@H]2[C@@H]3CCC4N(C)C(=O)CC[C@]4(C)[C@H]3CC[C@]12C)OC (some centres undefined)
0.29 µM	0.0076 µM	CC(C#N)[C@H]1CC[C@H]2[C@@H]3CCC4N(C)C(=O)CC[C@]4(C)[C@H]3CC[C@]12C (some centres undefined)
48 µM	0.013 µM	CCN(CC)C(=O)C(C)[C@H]1CC[C@H]2[C@@H]3CCC4N(C)C(=O)CC[C@]4(C)[C@H]3CC[C@]12C (some centres undefined)
0.96 µM	0.022 µM	COC(=O)C(C)[C@H]1CC[C@H]2[C@@H]3CCC4N(C)C(=O)CC[C@]4(C)[C@H]3CC[C@]12C (some centres undefined)
0.29 µM	0.0034 µM	CC(=O)[C@H]1[C@H](C)C[C@H]2[C@@H]3CCC4N(C)C(=O)CC[C@]4(C)[C@H]3CC[C@@]21C (some centres undefined)
0.68 µM	0.00056 µM	CN1C(=O)CC[C@@]2(C)C1CC[C@H]1[C@@H]3CC[C@H](C(=O)NC(C)(C)C)[C@@]3(C)CC[C@@H]12 (some centres undefined)
> 100 µM	0.14 µM	CCN(CC)C(=O)[C@H]1CC[C@H]2[C@@H]3CC[C@H]4NC(=O)C=C[C@]4(C)[C@H]3CC[C@]12C
25 µM	0.013 µM	CC(C(=O)[O-])[C@H]1CC[C@H]2[C@@H]3CC=C4N(C)C(=O)CC[C@]4(C)[C@H]3CC[C@]12C.[Na+] (some centres undefined)
46 µM	0.033 µM	CCCCCCCCN(CCCCCCCC)C(=O)[C@H]1CC[C@H]2[C@@H]3CCC4N(C)C(=O)CC[C@]4(C)[C@H]3CC[C@]12C (some centres undefined)
3.7 µM	0.5 µM	CCN(CC)C(=O)[C@H]1CCC[C@H]2[C@@H]3CC[C@H]4N(C)C(=O)OC[C@]4(C)[C@H]3CC[C@]12C
9.1 µM	0.037 µM	CN1C(=O)CC[C@@]2(C)C1CC[C@H]1[C@@H]3CC[C@H](C(=O)[O-])[C@@]3(C)CC[C@@H]12.[Na+] (some centres undefined)
> 10 µM	0.4 µM	CCN(CC)C(=O)[C@H]1CC[C@H]2[C@@H]3CC[C@H]4N(NC=O)C(=O)CC[C@]4(C)[C@H]3CC[C@]12C
21 µM	0.0036 µM	CC(CCC(=O)[O-])[C@H]1CC[C@H]2[C@@H]3CCC4N(C)C(=O)CC[C@]4(C)[C@H]3CC[C@]12C.[Na+] (some centres undefined)
1.7 µM	0.093 µM	CN1C(=O)CC[C@@]2(C)C1CC[C@H]1[C@@H]3CC[C@H](C(=O)NCCO)[C@@]3(C)CC[C@@H]12 (some centres undefined)
> 100 µM	0.05 µM	CCC(C)C(=O)[C@H]1CC[C@H]2[C@@H]3CCC4NC(=O)C=C[C@]4(C)[C@H]3CC[C@]12C (some centres undefined)
17 µM	0.02 µM	CCCCCCCCCCCCCCCCCCNC(=O)[C@H]1CC[C@H]2[C@@H]3CCC4N(C)C(=O)CC[C@]4(C)[C@H]3CC[C@]12C (some centres undefined)
3.2 µM	0.46 µM	CCN(CC)C(=O)[C@H]1CC[C@H]2[C@@H]3CC[C@H]4N(C)C(=O)[C@H](O)C[C@]4(C)[C@H]3CC[C@]12C
0.45 µM	0.29 µM	CCN(CC)C(=O)[C@H]1CC[C@H]2[C@@H]3CC[C@H]4N(C)C(=O)C=C[C@]4(C)[C@H]3CC[C@]12C

IC50 (Androgen receptor)	IC50 [1]	SMILES
50 µM	0.34 µM	CCN(CC)C(=O)[C@H]1CC[C@H]2[C@@H]3CC[C@H]4N(C)C(=O)C(=O)C[C@]4(C)[C@H]3CC[C@]12C
1.4 µM	0.27 µM	CC(=O)N[C@H]1CC[C@H]2[C@@H]3CCC4N(C)C(=O)CC[C@]4(C)[C@H]3CC[C@]12C (some centres undefined)
0.43 µM	0.0034 µM	CCN(CC)C(=O)CCC(C)[C@H]1CC[C@H]2[C@@H]3CCC4N(C)C(=O)CC[C@]4(C)[C@H]3CC[C@]12C (some centres undefined)
> 10 µM	1 µM	CC(C)N(C(=O)[C@H]1CC[C@H]2[C@@H]3CC[C@@H]4N(C)C(=O)CC[C@]4(C)[C@H]3CC[C@]12C)C(C)C
0.42 µM	0.0019 µM	CCC(C)C(=O)[C@H]1CC[C@H]2[C@@H]3CCC4N(C)C(=O)CC[C@]4(C)[C@H]3CC[C@]12C (some centres undefined)
1.5 µM	0.43 µM	C[C@]12C=CC(=O)NC1CC[C@@H]1[C@@H]2CC[C@@]2(C)[C@H]1CC[C@@]21CCCO1 (some centres undefined)
> 100 µM	0.025 µM	C[C@]12CC[C@H]3[C@@H](CCC4NC(=O)CC[C@@]43C)[C@@H]1CC[C@@H]2C(=O)[O-].[K+] (some centres undefined)
0.11 µM	0.43 µM	CN1C(=O)C=C[C@@]2(C)C1CC[C@@H]1[C@@H]2CC[C@@]2(C)[C@H]1CC[C@@]21CCCO1 (some centres undefined)
> 100 µM	0.0063 µM	CC(C)(C)NC(=O)[C@H]1CC[C@H]2[C@@H]3CCC4NC(=O)CC[C@]4(C)[C@H]3CC[C@]12C (some centres undefined)
18 µM	0.079 µM	CC(C)N(C(=O)[C@H]1CC[C@H]2[C@@H]3CCC4NC(=O)C=C[C@]4(C)[C@H]3CC[C@]12C)C(C)C (some centres undefined)
> 100 µM	0.0012 µM	CCC(C)C(=O)[C@H]1CC[C@H]2[C@@H]3CCC4NC(=O)CC[C@]4(C)[C@H]3CC[C@]12C (some centres undefined)
> 10 µM	> 1 µM	CCN(CC)C(=O)[C@H]1CC[C@H]2[C@@H]3CCC4N(C)C(=O)C=C(C#N)[C@]4(C)[C@H]3CC[C@]12C (some centres undefined)
5.4 µM	0.036 µM	CCN(CC)C(=O)[C@H]1CC[C@H]2[C@@H]3CC=C4N(N)C(=O)CC[C@]4(C)[C@H]3CC[C@]12C
0.066 µM	0.0068 µM	CCOC(=O)C[C@H]1CC[C@H]2[C@@H]3CC[C@H]4N(C)C(=O)CC[C@]4(C)[C@H]3CC[C@]12C
> 10 µM	> 1 µM	CCN(CC)C(=O)[C@H]1CC[C@H]2[C@@H]3CC[C@@H]4NC(=O)CC[C@]4(C)[C@H]3CC[C@]12C (stereo in doubt; 79)
40 µM	0.058 µM	CC(=O)N[C@@H]1CC[C@H]2[C@@H]3CCC4N(C)C(=O)CC[C@]4(C)[C@H]3CC[C@]12C (some centres undefined)
0.064 µM	0.12 µM	CCC(C)C(=O)[C@H]1CC[C@H]2[C@@H]3CCC4N(C)C(=O)C=C[C@]4(C)[C@H]3CC[C@]12C (some centres undefined)
6.1 µM	0.02 µM	CCN(CC)C(=O)[C@H]1CC[C@H]2[C@@H]3CC[C@H]4N(C)C(=O)[C@@H](C)C[C@]4(C)[C@H]3CC[C@]12C
10 µM	0.43 µM	CC(C)N(C(=O)[C@H]1CC[C@H]2[C@@H]3CCC4N(C)C(=O)C=C[C@]4(C)[C@H]3CC[C@]12C)C(C)C (some centres undefined)

SMILES	IC50 (Androgen receptor)	IC50 [1]
CNC(=O)[C@H]1CC[C@H]2[C@@H]3CC=C4N(C)C(=O)CC[C@]4(C)[C@H]3CC[C@]12C	0.4 µM	0.14 µM
CCN(CC)C(=O)/C=C1\CC[C@H]2[C@@H]3CCC4N(C)C(=O)CC[C@]4(C)[C@H]3CC[C@]12C (some centres undefined)	0.93 µM	0.0025 µM
CCN(CC)C(=O)[C@H]1CC[C@H]2[C@@H]3CC[C@H]4N(C)/C(=N/O)CC[C@]4(C)[C@H]3CC[C@]12C	0.54 µM	0.1 µM

— ChEMBL document CHEMBL1123274, “Azasteroids: structure-activity relationships for inhibition of 5 alpha-reductase and of androgen receptor binding” (J Med Chem, 1986)
